Source: ChEMBL document CHEMBL1909046, “DrugMatrix in vitro pharmacology data”

Columns and labels:
[1] = DRUGMATRIX: beta-Lactamase enzyme inhibition (substrate: Nitrocefin); parameters: species or system Bacillus cereus; conditions: Not Active = under 50% inhibition at 10 µM
[2] = DRUGMATRIX: Glutamate, NMDA, Agonism radioligand binding (ligand: [3H] CGP-39653); assay type: cell membranes, Rattus norvegicus, Wistar, Cerebral cortex, Membrane; conditions: Not Active = under 50% inhibition at 10 µM
[3] = DRUGMATRIX: Phorbol Ester radioligand binding (ligand: [3H] PDBu); assay type: cell membranes, Mus musculus, ICR, Brain, Membrane; conditions: Not Active = under 50% inhibition at 10 µM
[4] = DRUGMATRIX: Phosphodiesterase PDE4 enzyme inhibition (substrate: [3H]cAMP + cAMP); conditions: u-937; Not Active = under 50% inhibition at 10 µM
Caspase-1 = biological target: T1, Caspase-1 (Homo sapiens, UniProt P29466); parameters: species or system Escherichia coli;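 note: Caspase-1 enzyme inhibition assay with a peptide substrate; in other assays of this panel Not Active means under 50% inhibition at 10 µM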
T1 sequence (P29466 whole entry): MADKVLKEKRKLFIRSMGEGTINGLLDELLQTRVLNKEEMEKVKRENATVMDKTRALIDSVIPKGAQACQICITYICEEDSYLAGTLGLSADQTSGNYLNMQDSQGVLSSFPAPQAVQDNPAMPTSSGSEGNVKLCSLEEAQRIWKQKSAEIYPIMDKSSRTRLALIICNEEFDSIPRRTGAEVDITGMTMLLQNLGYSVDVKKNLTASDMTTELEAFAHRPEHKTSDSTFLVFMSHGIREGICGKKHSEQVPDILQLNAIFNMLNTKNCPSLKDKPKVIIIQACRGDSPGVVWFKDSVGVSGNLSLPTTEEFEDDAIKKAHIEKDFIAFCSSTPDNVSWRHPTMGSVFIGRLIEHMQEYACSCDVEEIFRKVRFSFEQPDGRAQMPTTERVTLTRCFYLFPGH

[5] = biological target: Matrix metalloproteinase-9 (Homo sapiens, UniProt P14780); assay: biochemical; assay type: cell-based;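 note: inhibition of isolated MMP-9 enzyme activity toward a synthetic peptide substrate, from the DrugMatrix protease screening panel; in other assays of this panel Not Active means under 50% inhibition at 10 µM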
[6] = DRUGMATRIX: Purinergic P2X radioligand binding (ligand: [3H] alpha, beta-Methylene-ATP); assay type: cell membranes, Oryctolagus cuniculus, New Zealand albino, Urinary bladder, Membrane; conditions: Not Active = under 50% inhibition at 10 µM
Cytochrome P450 1A2 = biological target: T2, Cytochrome P450 1A2 (Homo sapiens, UniProt P05177); conditions: bti-tn-5b1-4; note: in other assays of this panel Not Active means under 50% inhibition at 10 µM
T2 sequence (P05177 whole entry): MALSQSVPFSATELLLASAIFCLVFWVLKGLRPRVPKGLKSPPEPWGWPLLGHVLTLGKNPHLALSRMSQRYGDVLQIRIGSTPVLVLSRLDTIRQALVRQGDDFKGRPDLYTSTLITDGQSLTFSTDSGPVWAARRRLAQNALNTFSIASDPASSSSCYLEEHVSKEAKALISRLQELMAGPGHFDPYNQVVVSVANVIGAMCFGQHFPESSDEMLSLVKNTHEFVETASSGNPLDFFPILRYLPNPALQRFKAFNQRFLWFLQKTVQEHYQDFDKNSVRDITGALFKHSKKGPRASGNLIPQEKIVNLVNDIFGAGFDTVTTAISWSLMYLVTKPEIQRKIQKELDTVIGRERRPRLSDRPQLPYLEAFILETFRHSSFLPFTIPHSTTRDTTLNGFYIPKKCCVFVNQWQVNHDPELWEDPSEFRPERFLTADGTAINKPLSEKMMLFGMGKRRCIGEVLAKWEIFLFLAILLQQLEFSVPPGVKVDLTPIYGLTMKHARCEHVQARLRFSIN

Estrogen receptor = biological target: T3, Estrogen receptor (Homo sapiens, UniProt P03372); conditions: sf9; note: in other assays of this panel Not Active means under 50% inhibition at 10 µM
T3 sequence (P03372 whole entry): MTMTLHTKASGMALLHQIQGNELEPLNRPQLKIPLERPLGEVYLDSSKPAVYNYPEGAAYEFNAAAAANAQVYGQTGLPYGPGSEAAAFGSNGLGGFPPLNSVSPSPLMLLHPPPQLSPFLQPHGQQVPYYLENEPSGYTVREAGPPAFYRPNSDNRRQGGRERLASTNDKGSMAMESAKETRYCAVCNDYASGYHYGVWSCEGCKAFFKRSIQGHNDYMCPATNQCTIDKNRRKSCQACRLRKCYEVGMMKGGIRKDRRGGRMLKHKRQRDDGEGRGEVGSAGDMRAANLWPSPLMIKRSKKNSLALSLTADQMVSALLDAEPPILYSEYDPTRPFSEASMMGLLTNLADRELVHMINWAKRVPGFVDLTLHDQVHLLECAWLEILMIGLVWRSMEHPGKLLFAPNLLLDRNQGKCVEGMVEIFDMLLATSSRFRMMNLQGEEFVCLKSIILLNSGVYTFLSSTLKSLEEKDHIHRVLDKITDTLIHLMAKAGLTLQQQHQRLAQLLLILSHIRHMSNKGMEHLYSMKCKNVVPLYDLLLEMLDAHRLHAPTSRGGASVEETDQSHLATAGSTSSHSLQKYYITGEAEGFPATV

Sequence of Matrix metalloproteinase-9 (P14780 whole entry): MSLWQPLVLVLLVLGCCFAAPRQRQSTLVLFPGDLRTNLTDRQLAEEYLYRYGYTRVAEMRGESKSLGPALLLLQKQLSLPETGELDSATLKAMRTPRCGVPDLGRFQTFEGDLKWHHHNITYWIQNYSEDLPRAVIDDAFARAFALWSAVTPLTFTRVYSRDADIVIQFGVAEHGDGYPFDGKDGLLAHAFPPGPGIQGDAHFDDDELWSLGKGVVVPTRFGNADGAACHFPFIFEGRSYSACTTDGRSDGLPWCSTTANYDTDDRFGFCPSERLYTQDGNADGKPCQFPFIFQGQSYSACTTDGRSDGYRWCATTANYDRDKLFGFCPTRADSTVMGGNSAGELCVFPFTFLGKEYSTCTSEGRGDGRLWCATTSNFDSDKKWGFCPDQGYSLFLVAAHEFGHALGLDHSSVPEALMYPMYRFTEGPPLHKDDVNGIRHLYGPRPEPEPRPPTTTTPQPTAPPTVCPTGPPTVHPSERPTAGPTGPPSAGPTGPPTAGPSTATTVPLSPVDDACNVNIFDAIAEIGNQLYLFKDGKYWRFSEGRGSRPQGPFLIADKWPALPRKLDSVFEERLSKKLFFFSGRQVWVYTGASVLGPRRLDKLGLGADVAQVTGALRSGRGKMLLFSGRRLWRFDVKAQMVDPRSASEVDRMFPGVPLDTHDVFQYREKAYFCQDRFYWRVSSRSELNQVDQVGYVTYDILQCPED

Nn1nnc2ccccc21
Not Active: IC50 [1] | Ki [1] | IC50 [2] | Ki [2] | IC50 [3] | Ki [3] | IC50 [4] | Ki [4] | IC50 (Caspase-1) | IC50 [5] | IC50 [6] | Ki [6] | IC50 (Cytochrome P450 1A2) | Ki (Cytochrome P450 1A2) | IC50 (Estrogen receptor)

CCOC(=O)[C@H](CCc1ccccc1)N[C@@H](C)C(=O)N1Cc2ccccc2C[C@H]1C(=O)O
Not Active: IC50 [1] | Ki [1] | IC50 [2] | Ki [2] | IC50 [3] | Ki [3] | IC50 [4] | Ki [4] | IC50 (Caspase-1) | IC50 [5] | IC50 [6] | Ki [6] | IC50 (Cytochrome P450 1A2) | Ki (Cytochrome P450 1A2) | IC50 (Estrogen receptor)

O=C(c1ccccc1Cl)N1CCC(Cc2ccccc2)CC1
Not Active: IC50 [1] | Ki [1] | IC50 [2] | Ki [2] | IC50 [3] | Ki [3] | IC50 [4] | Ki [4] | IC50 (Caspase-1) | IC50 [5] | IC50 [6] | Ki [6] | IC50 (Cytochrome P450 1A2) | Ki (Cytochrome P450 1A2) | IC50 (Estrogen receptor)

Clc1cc2c(cc1Cl)Oc1cc(Cl)c(Cl)cc1O2 [2,3,7,8-TETRACHLORODIBENZO-P-DIOXIN]
Not Active: IC50 [1] | Ki [1] | IC50 [2] | Ki [2] | IC50 [3] | Ki [3] | IC50 [4] | Ki [4] | IC50 (Caspase-1) | IC50 [5] | IC50 [6] | Ki [6] | IC50 (Cytochrome P450 1A2) | Ki (Cytochrome P450 1A2) | IC50 (Estrogen receptor)

COc1cc(CNC(=O)CCCC/C=C/C(C)C)ccc1O [CAPSAICIN]
Not Active: IC50 [1] | Ki [1] | IC50 [2] | Ki [2] | IC50 [3] | Ki [3] | IC50 [4] | Ki [4] | IC50 (Caspase-1) | IC50 [5] | IC50 [6] | Ki [6] | IC50 (Estrogen receptor)

CCC[C@@H]1C[C@@H](C(=O)N[C@@H]([C@H]2O[C@H](SC)[C@H](O)[C@@H](O)[C@H]2O)[C@H](C)Cl)N(C)C1 [CLINDAMYCIN]
Not Active: IC50 [1] | Ki [1] | IC50 [2] | Ki [2] | IC50 [3] | Ki [3] | IC50 [4] | Ki [4] | IC50 (Caspase-1) | IC50 [5] | IC50 [6] | Ki [6] | IC50 (Estrogen receptor)

CCOC(=O)C1=C(C)NC(C)=C(C(=O)OC)C1c1cccc(Cl)c1Cl (stereo not drawn) [FELODIPINE]
Not Active: IC50 [1] | Ki [1] | IC50 [2] | Ki [2] | IC50 [3] | Ki [3] | IC50 [4] | Ki [4] | IC50 (Caspase-1) | IC50 [5] | IC50 [6] | Ki [6] | IC50 (Estrogen receptor)

Cc1cn[nH]c1 [FOMEPIZOLE]
Not Active: IC50 [1] | Ki [1] | IC50 [2] | Ki [2] | IC50 [3] | Ki [3] | IC50 [4] | Ki [4] | IC50 (Caspase-1) | IC50 [5] | IC50 [6] | Ki [6] | IC50 (Estrogen receptor)

Cc1cnc(C(=O)NCCc2ccc(S(=O)(=O)NC(=O)NC3CCCCC3)cc2)cn1 [GLIPIZIDE]
Not Active: IC50 [1] | Ki [1] | IC50 [2] | Ki [2] | IC50 [3] | Ki [3] | IC50 [4] | Ki [4] | IC50 [5] | IC50 [6] | Ki [6] | IC50 (Estrogen receptor)

C/C=C\c1ccc(O)c(OC)c1 [ISOEUGENOL]
Not Active: IC50 [1] | Ki [1] | IC50 [2] | Ki [2] | IC50 [3] | Ki [3] | IC50 [4] | Ki [4] | IC50 (Caspase-1) | IC50 [5] | IC50 [6] | Ki [6] | IC50 (Estrogen receptor)

NC[C@H]1O[C@H](O[C@H]2[C@H](O)[C@@H](O[C@H]3O[C@H](CO)[C@@H](O)[C@H](N)[C@H]3O)[C@H](N)C[C@@H]2N)[C@H](O)[C@@H](O)[C@@H]1O [KANAMYCIN]
Not Active: IC50 [1] | Ki [1] | IC50 [2] | Ki [2] | IC50 [3] | Ki [3] | IC50 [4] | Ki [4] | IC50 (Caspase-1) | IC50 [5] | IC50 [6] | Ki [6] | IC50 (Estrogen receptor)

OCCN1CCN(CCCN2c3ccccc3Sc3ccc(Cl)cc32)CC1 [PERPHENAZINE]
Not Active: IC50 [1] | Ki [1] | IC50 [2] | Ki [2] | IC50 [3] | Ki [3] | IC50 [4] | Ki [4] | IC50 (Caspase-1) | IC50 [5] | IC50 [6] | Ki [6] | IC50 (Estrogen receptor)
